Measurements taken from patent publication US20240398817A1, “CARDIO- AND RENOSAFE ANTIDIABETIC THERAPY” (priority 2018, published 2024).

Tested on: patients with type 2 diabetes at high vascular risk
Assay: Cardiovascular and Renal Outcomes Trial: linagliptin 5 mg once daily vs placebo on top of standard of care
Type: in vivo
Conditions: for Hazard ratio for hospitalised heart failure: vs placebo
Description: The effect of linagliptin on cardiovascular risk in adult patients with type 2 diabetes mellitus and with increased CV risk evidenced by a history of established macrovascular or renal disease (e.g. as defined herein) was evaluated in a multi-center, multi-national, randomized, double-blind parallel group trial. The trial compared the risk of experiencing a major adverse cardiovascular event (MACE) between linagliptin and placebo when these were added to and used concomitantly with standard of care treatments for diabetes (HbA1c), cardiovascular risk factors and renal disease.
The primary endpoint in this trial was the time to first occurrence of three point (3P) MACE. A major adverse cardiac event was defined as a cardiovascular death or a nonfatal myocardial infarction (MI) or a nonfatal stroke. The statistical analysis plan tested for non-inferiority for the occurrence of (3P) MACE. […] The secondary endpoint was a renal composite, defined as renal death or sustained end stage renal disease or sustained decrease of 40% or more in eGFR.
Type 2 diabetes patient with insufficient glycemic control (naïve or pre-treated with any antidiabetic background medication, excluding treatment with GLP-1 receptor agonists, DPP-4inhibitors or SGLT-2 inhibitors if ≥consecutive 7 days, e.g. having HbA1c 6.5-10%), and high risk of cardiovascular events, e.g. defined by: • albuminuria (micro or macro) and previous macrovascular disease: e.g. defined according to Condition I as indicated below; • and/or • impaired renal function: e.g. as defined according to Condition II as indicated below;
Background and aims: People with type 2 diabetes (T2D) are at increased risk for hospitalization for heart failure (hHF), particularly in the setting of concomitant cardiovascular (CV) and/or kidney disease. […] Here we present analyses of HF outcomes with the DPP-4 inhibitor linagliptin (LINA) vs. placebo (PBO) from a Cardiovascular and Renal Outcomes Trial assessing cardiovascular safety and renal microvascular outcome in patients with type 2 diabetes at high vascular risk, a large CV outcomes trial that enrolled participants with T2D at high risk for hHF due to concomitant CV and/or chronic kidney disease. Materials and methods: People with T2D and concomitant CV and/or kidney disease were randomized to receive LINA 5 mg, or PBO once daily (1:1), on top of standard of care. All hHF, CV outcomes, and deaths were centrally adjudicated, with individual and composite HF-related outcomes analyses comparing LINA vs. placebo. Investigator-reported HF-related adverse events, whether or not confirmed by adjudication, were also analyzed. A Cox proportional hazards model adjusting for region and history of HF was used for analyses of first events. Recurrent hHF events were analyzed using a negative binomial model.
Methods: The present Cardiovascular and Renal Outcomes Trial randomized people with T2D and i) concomitant CV disease with UACR >30 mg/g or ii) prevalent CKD (i.e. GFR <45 ml/min/1.73m2 and/or UACR >200 mg/g) to receive the DPP-4 inhibitor linagliptin (5 mg) or placebo once daily in a double-blind fashion. The primary CV endpoint was 3P-MACE, with a key secondary kidney endpoint (adjudicated ESKD, renal death, or sustained ≥40% decrease in eGFR from baseline) and other renal outcomes (including albuminuria and eGFR slope) also assessed. Subgroups were assessed by baseline kidney function (eGFR ≥/<45 ml/min/1.73m2and eGFR ≥/<30, 45 or 60 ml/min/1.73m2).
Adults with type 2 diabetes, HbA1c 6.5-10.0% inclusive, and high CV risk were eligible for inclusion. […] Macrovascular disease eligibility criteria was based on documented and confirmed history of myocardial infarction, coronary artery disease, stroke, carotid artery disease, or peripheral artery disease. Participants with end-stage kidney disease (ESKD), defined as eGFR <15 or requiring maintenance dialysis, were excluded.

[1] = Duration of type 2 diabetes ≥10 years
[2] = Established macrovascular disease and albuminuria No
[3] = Established macrovascular disease and albuminuria Yes
[4] = Estimated glomerular filtration rate <30 mL/min/1.73 m^2
[5] = Estimated glomerular filtration rate ≥30 to <45 mL/min/1.73 m^2
[6] = Estimated glomerular filtration rate ≥45 to <60 mL/min/1.73 m^2
[7] = Estimated glomerular filtration rate ≥60 mL/min/1.73 m^2

`CC#CCn1c(N2CCC[C@@H](N)C2)nc2c1c(=O)n(Cc1nc(C)c3ccccc3n1)c(=O)n2C` [Linagliptin, 1-[(4-methyl-quinazolin-2-yl)methyl]-3-methyl-7-(2-butyn-1-yl)-8-(3-(R)-amino-piperidin-1-yl)-xanthine] was tested, and the “3-point MACE: patients with event/patients analyzed” value [1] was 316/2277, the “Key secondary kidney outcome: hazard ratio vs placebo” value [1] was 0.97 and the “Key secondary kidney outcome: patients with event/patients analyzed” value [1] was 230/2277. The “Patients with event/patients analysed, hospitalised heart failure” value (“Patients with event/patients analysed” for short) [1] was 149/2277, the “Hazard ratio for hospitalised heart failure” value [1] was 0.89 and the “3-point MACE: hazard ratio vs placebo” value [2] was 1.13. For the same compound, the “3-point MACE: patients with event/patients analyzed” value [2] was 198/1486, the “Key secondary kidney outcome: hazard ratio vs placebo” value [2] was 1.03 and the “Key secondary kidney outcome: patients with event/patients analyzed” value [2] was 215/1486. The “Patients with event/patients analysed” value [2] was 96/1486, the “Hazard ratio for hospitalised heart failure” value [2] was 0.87 and the “3-point MACE: hazard ratio vs placebo” value [3] was 0.94. The “3-point MACE: patients with event/patients analyzed” value [3] was 236/2008, the “Key secondary kidney outcome: hazard ratio vs placebo” value [3] was 1.11 and the “Key secondary kidney outcome: patients with event/patients analyzed” value [3] was 112/2008. For the same compound, the “Patients with event/patients analysed” value [3] was 113/2008, the “Hazard ratio for hospitalised heart failure” value [3] was 0.93 and the “3-point MACE: hazard ratio vs placebo” value (Established renal disease No) was 0.98. The “3-point MACE: patients with event/patients analyzed” value (Established renal disease No) was 120/1385, the “Key secondary kidney outcome: hazard ratio vs placebo” value (Established renal disease No) was 1.20 and the “Key secondary kidney outcome: patients with event/patients analyzed” value (Established renal disease No) was 38/1385. The “Patients with event/patients analysed” value (Established renal disease No) was 47/1385, the “Hazard ratio for hospitalised heart failure” value (Established renal disease No) was 1.19 and the “3-point MACE: hazard ratio vs placebo” value (Established renal disease Yes) was 1.04. For the same compound, the “3-point MACE: patients with event/patients analyzed” value (Established renal disease Yes) was 314/2109, the “Key secondary kidney outcome: hazard ratio vs placebo” value (Established renal disease Yes) was 1.00 and the “Key secondary kidney outcome: patients with event/patients analyzed” value (Established renal disease Yes) was 289/2109. The “Patients with event/patients analysed” value (Established renal disease Yes) was 162/2109, the “Hazard ratio for hospitalised heart failure” value (Established renal disease Yes) was 0.84 and the “Patients with event/patients analysed” value [4] was 59/516. For the same compound, the “Hazard ratio for hospitalised heart failure” value [4] was 0.94, the “Patients with event/patients analysed” value [5] was 76/994 and the “Hazard ratio for hospitalised heart failure” value [5] was 0.85. The “Patients with event/patients analysed” value [6] was 38/690, the “Hazard ratio for hospitalised heart failure” value [6] was 1.06 and the “Patients with event/patients analysed” value [7] was 36/1294. The “Hazard ratio for hospitalised heart failure” value [7] was 0.88, the “3-point MACE: hazard ratio vs placebo” value (Ethnicity Hispanic/Latino) was 1.13 and the “3-point MACE: patients with event/patients analyzed” value (Ethnicity Hispanic/Latino) was 143/1227. For the same compound, the “Key secondary kidney outcome: hazard ratio vs placebo” value (Ethnicity Hispanic/Latino) was 1.10, the “Key secondary kidney outcome: patients with event/patients analyzed” value (Ethnicity Hispanic/Latino) was 156/1227 and the “Patients with event/patients analysed” value (Ethnicity Hispanic/Latino) was 58/1227. The “Hazard ratio for hospitalised heart failure” value (Ethnicity Hispanic/Latino) was 0.96, the “3-point MACE: hazard ratio vs placebo” value (Ethnicity Not Hispanic/Latino) was 0.97 and the “3-point MACE: patients with event/patients analyzed” value (Ethnicity Not Hispanic/Latino) was 291/2267. For the same compound, the “Key secondary kidney outcome: hazard ratio vs placebo” value (Ethnicity Not Hispanic/Latino) was 0.99, the “Key secondary kidney outcome: patients with event/patients analyzed” value (Ethnicity Not Hispanic/Latino) was 171/2267 and the “Patients with event/patients analysed” value (Ethnicity Not Hispanic/Latino) was 151/2267. For the same compound, the “Hazard ratio for hospitalised heart failure” value (Ethnicity Not Hispanic/Latino) was 0.87, the “3-point MACE: hazard ratio vs placebo” value (Gender Female) was 0.96 and the “3-point MACE: patients with event/patients analyzed” value (Gender Female) was 152/1346. The “Key secondary kidney outcome: hazard ratio vs placebo” value (Gender Female) was 0.92, the “Key secondary kidney outcome: patients with event/patients analyzed” value (Gender Female) was 117/1346 and the “Patients with event/patients analysed” value (Gender Female) was 74/1346. For the same compound, the “Hazard ratio for hospitalised heart failure” value (Gender Female) was 0.97, the “3-point MACE: hazard ratio vs placebo” value (Gender Male) was 1.06 and the “3-point MACE: patients with event/patients analyzed” value (Gender Male) was 282/2148. The “Key secondary kidney outcome: hazard ratio vs placebo” value (Gender Male) was 1.12, the “Key secondary kidney outcome: patients with event/patients analyzed” value (Gender Male) was 210/2148 and the “Patients with event/patients analysed” value (Gender Male) was 135/2148. The “Hazard ratio for hospitalised heart failure” value (Gender Male) was 0.87, the “Patients with event/patients analysed” value (Glycated haemoglobin <8.0%) was 107/1915 and the “Hazard ratio for hospitalised heart failure” value (Glycated haemoglobin <8.0%) was 0.78. For the same compound, the “Patients with event/patients analysed” value (Glycated haemoglobin ≥8.0%) was 102/1579, the “Hazard ratio for hospitalised heart failure” value (Glycated haemoglobin ≥8.0%) was 1.05 and the “3-point MACE: hazard ratio vs placebo” value (Glycated hemoglobin <8.0%) was 0.90. The “3-point MACE: patients with event/patients analyzed” value (Glycated hemoglobin <8.0%) was 229/1915, the “Key secondary kidney outcome: hazard ratio vs placebo” value (Glycated hemoglobin <8.0%) was 1.13 and the “Key secondary kidney outcome: patients with event/patients analyzed” value (Glycated hemoglobin <8.0%) was 186/1915. The “3-point MACE: hazard ratio vs placebo” value (Glycated hemoglobin ≥8.0%) was 1.20, the “3-point MACE: patients with event/patients analyzed” value (Glycated hemoglobin ≥8.0%) was 205/1579 and the “Key secondary kidney outcome: hazard ratio vs placebo” value (Glycated hemoglobin ≥8.0%) was 0.94. For the same compound, the “Key secondary kidney outcome: patients with event/patients analyzed” value (Glycated hemoglobin ≥8.0%) was 141/1579, the “3-point MACE: hazard ratio vs placebo” value (History of heart failure No) was 1.02 and the “3-point MACE: patients with event/patients analyzed” value (History of heart failure No) was 275/2542. For the same compound, the “Key secondary kidney outcome: hazard ratio vs placebo” value (History of heart failure No) was 1.07, the “Key secondary kidney outcome: patients with event/patients analyzed” value (History of heart failure No) was 252/2542 and the “Patients with event/patients analysed” value (History of heart failure No) was 96/2542. The “Hazard ratio for hospitalised heart failure” value (History of heart failure No) was 0.92, the “3-point MACE: hazard ratio vs placebo” value (History of heart failure Yes) was 1.01 and the “3-point MACE: patients with event/patients analyzed” value (History of heart failure Yes) was 159/952. For the same compound, the “Key secondary kidney outcome: hazard ratio vs placebo” value (History of heart failure Yes) was 0.95, the “Key secondary kidney outcome: patients with event/patients analyzed” value (History of heart failure Yes) was 75/952 and the “Patients with event/patients analysed” value (History of heart failure Yes) was 113/952.
